# Measured values taken from PubChem BioAssay (NCI).
# Several values for one entry are separate records, joined by “and”; a condition that tells them apart may be missing. Identical values can stand only once.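 Grown in 96-well plates, cells were treated for 48 hours with each compound at five concentrations. Insufficient inhibition: endpoint recorded as highest concentration tested. GI50 = concentration required for 50% inhibition of growth. The concentration for full growth arrest is given as TGI.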
# Assays:
# Experiment in all cases: NCI tumour cell line growth inhibition, 48 h
# [1] = test system: HT29 colon
# [2] = test system: MCF7 breast
# [3] = test system: HOP-18 NSCLC
# [4] = test system: UO-31 renal
# [5] = test system: HCT-116 colon
# [6] = test system: CAKI-1 renal
# [7] = test system: LOX IMVI melanoma
# [8] = test system: HCC-2998 colon
# [9] = test system: NCI-H522 lung
# [10] = test system: A549 NSCLC
# [11] = test system: P388/ADR leukemia
# [12] = test system: SK-MEL-28 melanoma
# [13] = test system: KM12 colon
# [14] = test system: RPMI-8226 leukemia
# [15] = test system: NCI/ADR-RES ovarian
# [16] = test system: SNB-75 CNS
# [17] = test system: SF-295 CNS
# [18] = test system: COLO 205 colon
# [19] = test system: HCT-15 colon
# [20] = test system: K-562 leukemia
# [21] = test system: SF-539 CNS
# [22] = test system: OVCAR-4 ovarian
# [23] = test system: RXF 393 renal
# [24] = test system: OVCAR-3 ovarian
# [25] = test system: HOP-62 NSCLC
# [26] = test system: SN12C renal
# [27] = test system: CCRF-CEM leukemia
# [28] = test system: SW-620 colon
# [29] = test system: HL-60(TB) leukemia
# [30] = test system: SNB-19 CNS
# [31] = test system: DMS 114 small cell lung
# [32] = test system: SN12K1 renal
# [33] = test system: TK-10 renal
# [34] = test system: M19-MEL melanoma
# [35] = test system: SNB-78 CNS
# [36] = test system: OVCAR-5 ovarian
# [37] = test system: IGROV1 ovarian
# [38] = test system: UACC-62 melanoma
# [39] = test system: SR leukemia
# [40] = test system: DLD-1 colon
# [41] = test system: SF-268 CNS
# [42] = test system: U251 CNS
# [43] = test system: MALME-3M melanoma
# [44] = test system: SK-MEL-5 melanoma
# [45] = test system: UACC-257 melanoma
# [46] = test system: SK-MEL-2 melanoma
# [47] = test system: A498 renal
# [48] = test system: XF 498 CNS
# [49] = test system: P388 leukemia
# [50] = test system: NCI-H460 lung
# [51] = test system: OVCAR-8 ovarian
# [52] = test system: EKVX NSCLC
# [53] = test system: SK-OV-3 ovarian
# [54] = test system: LXFL 529 NSCLC
# [55] = test system: ACHN renal
# [56] = test system: 786-0 renal
# [57] = test system: NCI-H23 lung
# [58] = test system: MOLT-4 leukemia
# [59] = test system: KM20L2 colon
# [60] = test system: DMS 273 small cell lung
# [61] = test system: HOP-92 NSCLC
# [62] = test system: NCI-H226 lung
structure (smiles),measurement,setting,value
COc1cccc2c1C(=O)c1c(O)c3c(c(O)c1C2=O)C[C@@](O)(C(C)O)C[C@@H]3OC1CC(N)C(O)C(C)O1 (some centres undefined),GI50,[1],2.78 µM
same,TGI,[1],36.6 µM
same,TGI,[2],42.5 µM
same,GI50,[3],4.96 µM and 1.13 µM
same,TGI,[3],9.5 µM and 7.49 µM
same,TGI,[4],97.8 µM
same,GI50,[5],1.38 µM
same,TGI,[5],4.17 µM and 17.8 µM
same,TGI,[6],3.16 µM and 3.53 µM
same,GI50,[7],1.29 µM
same,TGI,[7],4.13 µM and 3.11 µM
same,GI50,[8],2.26 µM
same,TGI,[8],5.26 µM and 7.66 µM
same,GI50,[9],0.228 µM
same,TGI,[9],2.34 µM and 1.82 µM
same,GI50,[10],1.11 µM
same,TGI,[10],6.02 µM and 29 µM
same,TGI,[11],> 100 µM
same,GI50,[12],1.93 µM
same,TGI,[12],4.05 µM and 7.36 µM
same,GI50,[13],2.75 µM
same,TGI,[13],9.34 µM and 14.3 µM
same,GI50,[14],0.289 µM and 0.502 µM
same,TGI,[14],2.53 µM and 13 µM
same,TGI,[15],> 100 µM
same,GI50,[16],1.71 µM and 1.05 µM
same,TGI,[16],6.25 µM and 4.31 µM
same,TGI,[17],6.29 µM and 7.17 µM
same,GI50,[18],0.894 µM
same,TGI,[18],4.95 µM and 10.5 µM
same,GI50,[19],12.1 µM
same,TGI,[19],> 100 µM
same,GI50,[20],2.21 µM
same,TGI,[20],8.19 µM and 26.5 µM
same,GI50,[21],0.665 µM
same,TGI,[21],4.77 µM and 3.63 µM
same,GI50,[22],13.4 µM
same,TGI,[22],35.2 µM
same,TGI,[23],5.13 µM and 6.06 µM
same,TGI,[24],7.29 µM and 8.79 µM
same,TGI,[25],4.3 µM and 4.42 µM
same,GI50,[26],1.49 µM
same,TGI,[26],6.58 µM and 7.62 µM
same,GI50,[27],0.254 µM
same,TGI,[27],1.33 µM
same,GI50,[28],0.881 µM
same,TGI,[28],8.28 µM and 21.4 µM
same,TGI,[29],1.13 µM and 1.29 µM
same,GI50,[30],0.392 µM
same,TGI,[30],7.81 µM and 5.57 µM
same,GI50,[31],0.255 µM
same,TGI,[31],1.48 µM and 1.14 µM
same,TGI,[32],2.4 µM
same,TGI,[33],8.11 µM
same,TGI,[34],3.32 µM and 4.06 µM
same,TGI,[35],7.32 µM and 8.53 µM
same,GI50,[36],3.69 µM
same,TGI,[36],9.41 µM and 19.7 µM
same,TGI,[37],9.22 µM and 18.4 µM
same,TGI,[38],3.01 µM and 3.29 µM
same,TGI,[39],0.659 µM
same,GI50,[40],6.11 µM
same,TGI,[40],> 100 µM
same,TGI,[41],5.52 µM and 6.43 µM
same,GI50,[42],0.705 µM
same,TGI,[42],7.87 µM and 3.44 µM
same,GI50,[43],0.392 µM
same,TGI,[43],1.72 µM and 1.93 µM
same,TGI,[44],2.49 µM and 2.53 µM
same,GI50,[45],2.41 µM
same,TGI,[45],4.2 µM and 9.17 µM
same,GI50,[46],1.59 µM
same,TGI,[46],3.5 µM and 3.45 µM
same,GI50,[47],0.776 µM
same,TGI,[47],8.09 µM and 4.62 µM
same,GI50,[48],0.221 µM
same,TGI,[48],2.87 µM and 1.86 µM
same,TGI,[49],1.69 µM
same,TGI,[50],2.29 µM and 6.95 µM
same,GI50,[51],2.39 µM
same,TGI,[51],5.43 µM and > 52.5 µM
same,GI50,[52],1.73 µM
same,TGI,[52],4.91 µM and 9.53 µM
same,TGI,[53],8.2 µM and 18.6 µM
same,TGI,[54],7.62 µM
same,TGI,[55],8.18 µM
same,TGI,[56],4.11 µM
same,GI50,[57],1.27 µM
same,TGI,[57],2.44 µM and 4.93 µM
same,GI50,[58],0.0811 µM
same,GI50,[59],4.52 µM
same,TGI,[59],42.9 µM
same,TGI,[60],7.24 µM and 6.65 µM
same,GI50,[61],0.231 µM
same,TGI,[61],3.37 µM and 2.11 µM
same,GI50,[62],0.808 µM
same,TGI,[62],2.39 µM and 3.11 µM
CC1=NCCc2cc3[nH]c4ccccc4c3cc21,TGI,[1],48.7 µM
same,TGI,[2],69.7 µM
same,TGI,[3],50 µM
same,TGI,[4],54.9 µM
same,TGI,[5],45.5 µM
same,TGI,[6],57.6 µM
same,TGI,[7],37.7 µM
same,TGI,[8],53.8 µM
same,TGI,[9],84.9 µM
same,TGI,[10],103 µM
same,TGI,[11],34.2 µM
same,TGI,[12],24.6 µM
same,TGI,[13],78.8 µM
same,TGI,[14],40.3 µM
same,TGI,[15],83.8 µM
same,TGI,[16],70 µM
same,TGI,[17],46.8 µM
same,TGI,[18],24.5 µM
same,TGI,[19],78.4 µM
same,TGI,[20],22.9 µM
same,TGI,[21],32 µM
same,TGI,[22],110 µM
same,TGI,[23],23.4 µM
same,TGI,[24],114 µM
same,TGI,[25],111 µM
same,TGI,[26],62.9 µM
same,TGI,[27],36.9 µM
same,TGI,[28],52.5 µM
same,TGI,[29],37.6 µM
same,TGI,[30],116 µM
same,TGI,[31],23.4 µM
same,TGI,[32],44.6 µM
same,TGI,[34],43.6 µM
same,TGI,[35],86.9 µM
same,TGI,[36],56.6 µM
same,TGI,[37],> 85.3 µM
same,TGI,[38],39.8 µM
same,TGI,[40],73.1 µM
same,TGI,[41],77.7 µM
same,TGI,[42],79 µM
same,TGI,[43],22.3 µM
same,TGI,[44],28.1 µM
same,TGI,[45],24.6 µM
same,TGI,[46],29.3 µM
same,TGI,[47],46.1 µM
same,TGI,[48],30.5 µM
same,TGI,[49],21.9 µM
same,TGI,[50],37.1 µM
same,TGI,[51],> 88.5 µM
same,TGI,[52],95.8 µM
same,TGI,[53],62.6 µM
same,TGI,[57],83.8 µM
same,TGI,[58],34.3 µM
same,TGI,[59],45.7 µM
same,TGI,[60],50.6 µM
same,TGI,[61],5.45 µM
same,TGI,[62],37.9 µM
